# pIC50, pKi: −log10 of the molar value. Where two headings read alike, the source gives them in different places.
# Assays:
# [1] = system: JAK1-dependent STAT6 phosphorylation in BEAS-2B human bronchial epithelial cells; experiment: JAK1 pathway assay: IL-13 stimulated STAT6 phosphorylation in BEAS-2B cells; type: cell-based; conditions: BEAS-2B cells, IL-13 stimulation, read-out: IL-13 p-STAT6 BEAS-2B IC50
# Summary of the method: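 BEAS-2B bronchial epithelial cells plated one day before, run in complete growth medium. Phospho-STAT6 in lysates measured by MesoScale Discovery; EC50 reported.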
# [2] = target: isolated recombinant JAK1 kinase domain (Homo sapiens (Human), UniProt P23458); experiment: JAK1 enzyme assay (Caliper LabChip, Ki); type: biochemical
# isolated recombinant JAK1 kinase domain, sequence (P23458 875-1153): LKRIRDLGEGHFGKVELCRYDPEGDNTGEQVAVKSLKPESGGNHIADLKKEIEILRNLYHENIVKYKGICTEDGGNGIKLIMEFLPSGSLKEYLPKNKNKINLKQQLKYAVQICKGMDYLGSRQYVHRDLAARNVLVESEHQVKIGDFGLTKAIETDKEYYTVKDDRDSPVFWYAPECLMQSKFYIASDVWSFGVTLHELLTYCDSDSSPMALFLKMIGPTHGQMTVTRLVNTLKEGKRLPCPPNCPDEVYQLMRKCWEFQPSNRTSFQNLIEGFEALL
# Experimental: The activity of the isolated recombinant JAK1 and JAK2 kinase domain was measured by monitoring phosphorylation of a peptide derived from JAK3 ([…] fluorescently labeled on the N-terminus with 5-carboxyfluorescein) using the Caliper LabChip R technology (Caliper Life Sciences, Hopkinton, Mass.).
# [3] = target: isolated recombinant JAK2 kinase domain (Homo sapiens (Human), UniProt O60674); experiment: JAK2 enzyme assay (Caliper LabChip, Ki); conditions: read-out: JAK2 Ki
# isolated recombinant JAK2 kinase domain, sequence (O60674 849-1124): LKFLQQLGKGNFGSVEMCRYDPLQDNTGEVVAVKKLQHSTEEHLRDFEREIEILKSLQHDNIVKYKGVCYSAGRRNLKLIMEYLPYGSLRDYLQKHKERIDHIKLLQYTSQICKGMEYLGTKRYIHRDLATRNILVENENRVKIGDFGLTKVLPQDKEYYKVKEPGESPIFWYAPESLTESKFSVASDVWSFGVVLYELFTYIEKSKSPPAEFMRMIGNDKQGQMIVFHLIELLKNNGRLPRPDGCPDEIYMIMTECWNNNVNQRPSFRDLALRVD
# Experimental: JAK Enzyme Assays were Carried Out as Follows:
# The activity of the isolated recombinant JAK1 and JAK2 kinase domain was measured by monitoring phosphorylation of a peptide derived from JAK3 ([sequence] fluorescently labeled on the N-terminus with 5-carboxyfluorescein) using the Caliper LabChip R technology (Caliper Life Sciences, Hopkinton, Mass.). […] After termination of the kinase reaction, the proportion of phosphorylated product was determined as a fraction of total peptide substrate using the Caliper LabChip R 3000 according to the manufacturer's specifications.
pKi [2],pKi [3],SMILES,"pIC50 ([1]; Homo sapiens, BEAS-2B)",pIC50 [1]
9.51,9.33,"CCN(C)C(=O)Cn1cc(NC(=O)c2cnn3cccnc23)c(-c2cc3c(cc2OC(F)F)NCCO3)n1 [Example 130, N-[3-[6-(difluoromethoxy)-3,4-dihydro-2H-1,4-benzoxazin-7-yl]-1-[2-[ethyl(methyl)amino]-2-oxo-ethyl]pyrazol-4-yl]pyrazolo[1,5-a]pyrimidine-3-carboxamide]",7.23,
9.40,9.42,"CC(C)OC(=O)n1cc(NC(=O)c2cnn3cccnc23)c(-c2cc3c(cc2OC(F)F)NCCO3)n1 [Example 154, Propan-2-yl 3-[6-(difluoromethoxy)-3,4-dihydro-2H-1,4-benzoxazin-7-yl]-4-[pyrazolo[1,5-a]pyrimidine-3-amido]-1H-pyrazole-1-carboxylate]",7.66,
9.70,9.33,"CN(C)C(=O)Cn1cc(NC(=O)c2cnn3cccnc23)c(-c2cc3sncc3cc2OC(F)F)n1 [Example 129, N-[3-[5-(difluoromethoxy)-1,2-benzothiazol-6-yl]-1-[2-(dimethylamino)-2-oxo-ethyl]pyrazol-4-yl]pyrazolo[1,5-a]pyrimidine-3-carboxamide]",7.96,
9.64,9.54,"O=C(Nc1cn(CC(=O)N2CC=CCC2)nc1-c1cc2c(cc1OC(F)F)NCCO2)c1cnn2cccnc12 [Example 49, N-[3-[6-(difluoromethoxy)-3,4-dihydro-2H-1,4-benzoxazin-7-yl]-1-[2-(3,6-dihydro-2H-pyridin-1-yl)-2-oxo-ethyl]pyrazol-4-yl]pyrazolo[1,5-a]pyrimidine-3-carboxamide]",7.72,
10.10,10.00,"Cn1cc(NC(=O)c2cnn3cccnc23)c(-c2cc3c(cc2OC(F)F)NCCS3)n1 [Example 88, N-[3-[6-(difluoromethoxy)-3,4-dihydro-2H-1,4-benzothiazin-7-yl]-1-methyl-pyrazol-4-yl]pyrazolo[1,5-a]pyrimidine-3-carboxamide]",8.30,
9.17,9.64,"C[C@@H]1CNc2cc(OC(F)F)c(-c3n[nH]cc3NC(=O)c3cnn4cccnc34)cc2O1 [Example 118, N-[3-[(2R)-6-(difluoromethoxy)-2-methyl-3,4-dihydro-2H-1,4-benzoxazin-7-yl]-1H-pyrazol-4-yl]pyrazolo[1,5-a]pyrimidine-3-carboxamide]",7.43,
9.25,9.06,"O=C(Nc1cn(CC(=O)N2CCC(N3CCOCC3)CC2)nc1-c1cc2ccccc2cc1OC(F)F)c1cnn2cccnc12 [Example 57, N-[3-[3-(difluoromethoxy)-2-naphthyl]-1-[2-(4-morpholino-1-piperidyl)-2-oxo-ethyl]pyrazol-4-yl]pyrazolo[1,5-a]pyrimidine-3-carboxamide]",7.77,
9.46,8.94,"CC(C)(C)OC(=O)N1CCN(C(=O)Cn2cc(NC(=O)c3cnn4cccnc34)c(-c3cc4ccccc4cc3OC(F)F)n2)CC1 [Example 70, tert-butyl 4-[2-[3-[3-(difluoromethoxy)-2-naphthyl]-4-(pyrazolo[1,5-a]pyrimidine-3-carbonylamino)pyrazol-1-yl]acetyl]piperazine-1-carboxylate]",7.60,
8.34,8.70,"O=C(Nc1c[nH]nc1-c1cc2sc(C(=O)N3CCNCC3)cc2cc1OC(F)F)c1cnn2cccnc12 [Example 10, N-(3-(5-(difluoromethoxy)-2-(piperazine-1-carbonyl)benzo[b]thiophen-6-yl)-1H-pyrazol-4-yl)pyrazolo[1,5-a]pyrimidine-3-carboxamide]",< 6.00,
9.04,9.40,"COc1cc2sncc2cc1-c1n[nH]cc1NC(=O)c1cnn2cccnc12 [Example 33, N-[3-(6-methoxy-1,2-benzothiazol-5-yl)-1H-pyrazol-4-yl]pyrazolo[1,5-a]pyrimidine-3-carboxamide]",7.68,
8.82,8.99,"CN1CCC(Cn2cc(NC(=O)c3cnn4cccnc34)c(-c3cc4ccccc4cc3OC(F)F)n2)CC1 [Example 86, N-[3-[3-(difluoromethoxy)-2-naphthyl]-1-[(1-methyl-4-piperidyl)methyl]pyrazol-4-yl]pyrazolo[1,5-a]pyrimidine-3-carboxamide]",7.51,
9.68,9.62,"CC1CSc2cc(-c3nn(CC(=O)N(C)C)cc3NC(=O)c3cnn4cccnc34)c(OC(F)F)cc2N1 (single isomer, unassigned) [Example 114, N-[3-[6-(difluoromethoxy)-3-methyl-3,4-dihydro-2H-1,4-benzothiazin-7-yl]-1-[2-(dimethylamino)-2-oxo-ethyl]pyrazol-4-yl]pyrazolo[1,5-a]pyrimidine-3-carboxamide]",,7.82
